According to patent US20220227772A1, “DEUTERATED TRIAZOLOPYRIMIDINES” (THE TRUSTEES OF THE UNIVERSITY OF PENNSYLVANIA, priority 2019, published 2022):
Read-outs that look alike come from different tables or passages of the source.

Columns and labels:
[1] = test system: acetylated α-tubulin in QBI293 cells; assay: QBI293 cell-based microtubule stabilization assay, acetyl-tubulin ELISA; details: 4 h incubation
Method: (§1) The HEK293 cell subclone, QBI293, was maintained in DMEM supplemented with 10% fetal calf or bovine serum, 1% penicillin/streptomycin antibiotic solution and 1% glutamine at 37° C. in 5% CO2. Cells were plated into 6-well plates at a density of 800,000 cells/well. […] Test compounds were added at multiple concentrations to the test wells and incubated for 4 h. Subsequently, the media was removed and the cells were washed with 1 mL of ice-cold phosphate-buffered saline (PBS). After removal of PBS, 0.2 mL of ice-cold RIPA (0.5% sodium deoxycholate, 0.1% SDS, 1% NP-40, 5 mM EDTA, pH 8.0) containing protease inhibitor mix (1 μg/mL each of pepstatin, leupeptin, TLCK, TPCK and trypsin inhibitor), 1 mM PMSF and 1 μM trichostatin A was added to the wells. The wells were then scraped using a cell scraper and pipetted into 1.5 mL microfuge tubes. The tubes were sonicated with a handheld sonicator at 20× on a power setting of 2, followed by centrifugation for 30 min at 15,000 rpm at […]. Supernatants were removed and quantified for protein concentration and the acetyl-tubulin levels were determined using an ELISA as described.
(§2) The enzyme-linked immunosorbent assay (ELISA) was performed as previously described in Brunden, 2011, Pharmacological Research, 63:341, which is incorporated by reference herein. Briefly, 384-well plates were coated with 12G10 α-tubulin antibody (10 μg/mL; Covance, Princeton, N.J., USA) in 30 μL of cold 0.1 M bicarbonate buffer. 12G10 anti-α-tubulin antibody was originally deposited to the Developmental Studies Hybridoma Bank by Frankel and Nelsen. After overnight incubation at 4° C., the plates were blocked in Block Ace solution (Bio-Rad, Hercules, Calif., USA) for a minimum of 24 hours at 4° C. QBI-293 cell homogenates were diluted in C buffer (0.02 M sodium phosphate, 2 mM EDTA, 0.4 M NaCl, 1% BSA, 0.005% Thimerosal, pH 7.0). Typically, […] dilutions from 266 ng/μL to 22.2 ng/μL for QBI cells were performed and 30 μL of sample were added to wells in duplicate. Plates were sealed, centrifuged, and incubated overnight at 4° C. Following incubation with antigen, wells were aspirated and washed with PBS containing 0.05% Tween-20 and 0.005% thimerosal (PBS-Tween buffer). A horseradish peroxidase (HRP)-acetyl-tubulin reporter antibody was prepared by conjugating acetyl-tubulin primary antibody (Sigma Aldrich; clone 6-11B-1) to HRP using a commercially-available peroxidase labeling kit (Roche Applied Science, Indianapolis, Ind., USA). The HRP-acetyl-tubulin reporter antibody (1:1,000 v/v; Sigma Aldrich) or pre-conjugated HRP-alpha-tubulin (1:5,000 v/v; ProteinTech Group, Chicago, Ill., USA) diluted in C buffer were added to appropriate wells (30 μL per well). The plates were sealed and incubated at room temperature for 4 hours on a platform rocker, followed by washing with PBS-Tween buffer. Peroxidase substrate solution (30 μL; KPL, Gaithersburg, Md., USA) was added to each well and the reaction was quenched after 10 min with 10% phosphoric acid (30 μL). Plates were read on a SpectraMax M5 plate reader at an absorbance of 450 nm. The amount of acetyl- and alpha-tubulin protein in each sample was extrapolated using standard curves generated from serial dilutions of known protein standard (acetyl- or alpha-tubulin) concentrations.
(§3) The compounds were evaluated in a QBI293 cell-based MT assay as described in Kovalevich et al., J. Pharmacol. Exp. Ther., 2016, 357, 432-50, which is incorporated by reference herein. In summary, acetylated α-tubulin and total α-tubulin levels were determined by ELISA in cell lysates after 4 h of incubation with test compound at 1 and 10 μM (Table 1).

[2] = test system: total α-tubulin in QBI293 cells; assay: QBI293 cell-based MT assay, alpha-tubulin ELISA; details: 4 h incubation
Method: as §1, §2, §3

[3] = Plasma and brain compound levels in wild-type mice; type: in vivo, mouse; details: for Kp at 1 h: brain/plasma, read-out: B/P
Method: Mouse brains were homogenized in 10 mM ammonium acetate, pH 5.7 (1:2; w/v) using a handheld sonic homogenizer. Mouse plasma was obtained from blood that was collected into a 1.5 mL tube containing 0.5M EDTA solution and which was centrifuged for 10 minutes at 4500 g at […]. Aliquots (50 μL) of brain homogenates (50% w/v in 100 mM NH4OAc pH 5.75) or plasma were mixed with 0.2 ml of acetonitrile, centrifuged at 15,000 g, and the resulting supernatant was used for subsequent LC-MS/MS analysis. Compounds were detected using multiple reaction monitoring (MRM) of their specific collision-induced ion transitions. Samples were separated on an Agilent Zorbax C8 column (3.5 μm, 2.1×50 mm) at 35° C., with mobile phase A of 0.1% (v/v) formic acid, and B of acetonitrile with 0.1% (v/v) formic acid and a gradient of increasing B at 0.4 mL/min. To account for possible matrix effects on analytes, standard curves were generated for each compound from brain homogenate and plasma samples. The standard curve samples were extracted and analyzed in an identical fashion as the corresponding tissue-derived samples, and peak areas were plotted against concentration and a linear regression curve was used to obtain estimated concentrations of the tissue-derived samples using the peak areas. […]

[4] = female, mouse, brain, intraperitoneal, 1 h @ 2.5 mg/kg, read-out: Brain conc.
[5] = female, mouse, intraperitoneal, 1 h @ 2.5 mg/kg
[6] = female, mouse, plasma, intraperitoneal, 1 h @ 2.5 mg/kg, read-out: Plasma conc.
[7] = scaled to 5 mg/kg, read-out: Brain conc.
[8] = mouse, brain, 1 h @ 5.0 mg/kg, read-out: Brain conc.
[9] = mouse, plasma, 1 h @ 5.0 mg/kg, read-out: Plasma conc.

Compound	AcTub (acetylated-tubulin relative to vehicle-treated cells) ([1]; 1 μM)	AcTub (acetylated-tubulin relative to vehicle-treated cells) ([1]; 10 μM)	αTub (α-tubulin relative to vehicle-treated cells) ([2]; 1 μM)	αTub (α-tubulin relative to vehicle-treated cells) ([2]; 10 μM)	further results
[2H][C@@](C)(Nc1c(-c2c(F)cc(F)cc2F)c(Cl)nc2ncnn12)C(C)(C)C (single isomer, unassigned)	1.10 ± 0.07	2.92 ± 0.04	1.07 ± 0.05	0.85 ± 0.05	–
CC(C)[C@H](C)Nc1c(-c2c(F)cc(F)cc2F)c(Cl)nc2ncnn12 [(S)-5-chloro-N-(3-methylbutan-2-yl)-6-(2,4,6-trifluorophenyl)-[1,2,4]triazolo[1,5-a]pyrimidin-7-amine]	1.22 ± 0.10	2.46 ± 0.18	0.94 ± 0.04	0.88 ± 0.02	–
C[C@H](Nc1c(-c2c(F)cc(F)cc2F)c(Cl)nc2ncnn12)C(C)(C)C [(S)-5-chloro-N-(3,3-dimethylbutan-2-yl)-6-(2,4,6-trifluorophenyl)-[1,2,4]triazolo[1,5-a]pyrimidin-7-amine]	1.03 ± 0.01	3.05 ± 0.18	0.80 ± 0.06	0.83 ± 0.06	–
[2H][C@](C)(Nc1c(-c2c(F)cc(F)cc2F)c(Cl)nc2ncnn12)C(C)(C)C (single isomer, unassigned)	5.71 ± 0.13	7.69 ± 0.49	1.00 ± 0.03	1.05 ± 0.09	concentration at 1 h [3, 4]: 296 ± 48 nM; Kp at 1 h [3, 5]: 2.9; concentration at 1 h [3, 6]: 104 ± 14 nM; Plasma conc. ([3]; scaled to 5 mg/kg): 208 nM; concentration at 1 h [3, 7]: 592 nM
[2H]C(C)(Nc1c(-c2c(F)cc(F)cc2F)c(Cl)nc2ncnn12)C(C)C (single isomer, unassigned) [5-chloro-N-(3-methylbutan-2-yl-2-d)-6-(2,4,6-trifluorophenyl)-[1,2,4]triazolo[1,5-a]pyrimidin-7-amine]	–	–	–	–	concentration at 1 h [3, 4]: 551 ± 56 nM; Kp at 1 h [3, 5]: 2.8; concentration at 1 h [3, 6]: 199 ± 46 nM
[2H]C(C)(Nc1c(-c2c(F)cc(F)cc2F)c(Cl)nc2ncnn12)C(C)C (single isomer, unassigned) [5-chloro-N-(3-methylbutan-2-yl-2-d)-6-(2,4,6-trifluorophenyl] [5-chloro-N-(3-methylbutan-2-yl-2-d)-6-(2,4,6-trifluorophenyl)-[1,2,4]triazolo[1,5-a]pyrimidin-7-amine]	–	–	–	–	αTub (α-tubulin relative to vehicle-treated cells) ([2]; 1 μM, enantiomer 1): 1.16 ± 0.04; αTub (α-tubulin relative to vehicle-treated cells) ([2]; 1 μM, enantiomer 2): 0.93 ± 0.05; αTub (α-tubulin relative to vehicle-treated cells) ([2]; 10 μM, enantiomer 1): 1.20 ± 0.01; αTub (α-tubulin relative to vehicle-treated cells) ([2]; 10 μM, enantiomer 2): 0.93 ± 0.02; Plasma conc. ([3]; scaled to 5 mg/kg): 398 nM; concentration at 1 h [3, 7]: 1102 nM
C[C@@H](Nc1c(-c2c(F)cc(F)cc2F)c(Cl)nc2ncnn12)C(C)(C)C [(R)-5-chloro-N-(3,3-dimethylbutan-2-yl)-6-(2,4,6-trifluorophenyl)-[1,2,4]triazolo[1,5-a]pyrimidin-7-amine]	5.11 ± 0.47	7.19 ± 0.31	1.00 ± 0.06	1.03 ± 0.12	concentration at 1 h [3, 8]: 153 ± 33 nM; Kp at 1 h ([3]; mouse, 1 h @ 5.0 mg/kg): 2.2; concentration at 1 h [3, 9]: 69 ± 11 nM
CC(C)[C@@H](C)Nc1c(-c2c(F)cc(F)cc2F)c(Cl)nc2ncnn12 [(R)-5-chloro-N-(3-methylbutan-2-yl)-6-(2,4,6-trifluorophenyl)-[1,2,4]triazolo[1,5-a]pyrimidin-7-amine]	2.08 ± 0.09	2.54 ± 0.10	1.10 ± 0.20	0.91 ± 0.17	concentration at 1 h [3, 8]: 812 ± 61 nM; Kp at 1 h ([3]; mouse, 1 h @ 5.0 mg/kg): 2.5; concentration at 1 h [3, 9]: 320 ± 93 nM
